Here are results for 2 compounds from patent US8318710B2, “Skin treatments” (priority 2003, dated 2012).

Assay [1] deals with CRABPII protein in primary dermal fibroblasts. The assay is described as follows: Fibroblast expression of CRABPII (Western blot). The assay is classed as cell-based. The following applies: 24 hours; for Band Intensity (arbitrary units): CRABPII band; for Relative band intensity: relative to vehicle. The method, then:
Cells were then plated out in 12 well plates at 38,000 cells per well, and incubated for 24 hours. […] Cells were treated with vehicle (ethanol) or 22R hydroxycholesterol and/or retinoic acid in 1 ml fresh medium (DMEM plus 10% FCS). Treatments were prepared as fresh 1000× stocks and diluted into medium immediately before addition to the cells. […] Cells were washed in 1 ml phosphate buffer saline and trypsinised from the plates. Cells were pelleted at 13000 g for 5 min and washed with 1 ml PBS. Cells were re-pelleted and re-suspended in protein lysis buffer (4M urea, 0.5% SDS, 10 mM EDTA in PBS with protease inhibitor cocktail). Samples were equilibrated for total protein content and the proteins separated by SDS-PAGE and blotted to nitrocellulose. Membranes were probed with antisera against the CRABPII protein and detected by ECL-plus. Intensity of signal was captured using a STORM scanner and quantified using ImageQuant 5.2.
On the technique in general: Immunoblotting shows a protein as a band on a membrane.

For assay [2], the system named is RAR reporter gene construct (RAREs) with over-expressed RARγ, RXRα and LXRα in Cos-7 cells. The settings on record: 24 hours, fold activation over vehicle (ethanol) control.

Like-named read-outs stand apart in the source and are kept apart here.

Turning to `CC(C)CC[C@@H](O)[C@@H](C)[C@H]1CC[C@H]2[C@@H]3CC=C4C[C@@H](O)CC[C@]4(C)[C@H]3CC[C@]12C` [22R hydroxycholesterol], in assay [1] (5 μM 22R-hydroxycholesterol), the “% change from vehicle” value is −0.8%, the “Band Intensity (arbitrary units)” value stood at 167664.2 arbitrary units and the Relative band intensity is reported as 0.992. Besides, the “Fold activity +/− sd (n = 3)” value in assay [2] (35 μM 22R hydroxycholesterol) is listed as 1.209 +/− 0.030 fold.
With `CC1=C(/C=C/C(C)=C/C=C/C(C)=C/C(=O)O)C(C)(C)CCC1` [all-trans retinoic acid], in assay [1] (1 nM all-trans retinoic acid), the “% change from vehicle” value is given as “+35.3%”, the “Band Intensity (arbitrary units)” value is listed as 228603.88 arbitrary units and the Relative band intensity came to 1.353. In addition, the “Fold activity +/− sd (n = 3)” value in assay [2] (0.1 μM all-trans retinoic acid) is 1.733 +/− 0.445 fold.
